Results from patent publication US20240035071A1, “CATALYTIC DE-CROSSLINKING OF SAMPLES FOR IN SITU ANALYSIS” (10X Genomics, Inc., priority 2022, published 2024).

What was measured:
[1] = test system: FFPE mouse brain tissues; assay: RCP signal detection in de-crosslinked FFPE mouse brain tissues; conditions: compared to Compound 1 in citrate buffer (pH 6.8)
Description: FFPE mouse brain tissues were processed essentially as described in Example 1, and gene expression analysis for RNA transcripts and protein analysis (e.g., anti-GFAP antibody staining) in the dentate gyrus (DG) region were performed essentially as described in Examples 2 and 3. Four de-crosslinking agent and buffer combinations were tested: Compound 1 in citrate buffer (pH 6.8), Compound 15 in citrate buffer (pH 6.8), Compound 18 (trans-4-hydroxy-L-proline) in citrate buffer (pH 6.8), and Compound 1 in PBS (pH 7.4).

[2] = test system: FFPE human breast cancer samples; assay: RCP detection in FFPE human breast cancer samples de-crosslinked with additives; conditions: for detection of RCPs (detected object counts per nucleic area): 150 mM, 80° C., 30 minutes, compared to no additional additives or single additives
Description: (§1) FFPE human breast cancer samples sectioned to […] thickness were processed essentially as described in […]. Specifically, 2-amino-5-methylbenzoic acid (Compound 1) was used as the de-crosslinking agent and applied to de-paraffinized and re-hydrated samples in a buffer solution with various additives, such as 0.05% SDS, 0.2% SDS, 0.5% SDS, 0.05 M urea, 0.5 M urea, 0.2 μg/ml proteinase K, 0.5 μg/ml proteinase K, 1 μg/ml proteinase K, and combinations thereof. The samples were incubated at 80° C. for 30 minutes, using 150 mM of Compound 1. Analytes in the de-crosslinked tissue samples were detected essentially as described in Example 2 using circularizable probes (e.g., padlock probes) targeting ACTB, GAPDH, MALAT-1, RPLPO, Eef2, Ppib, POLR2A RNA transcripts. Detectable probes were hybridized to sequences (e.g., barcode sequences or anchor sequences) in the RCPs and comprised overhangs for hybridization of fluorescently labelled detection oligonucleotides. The samples were imaged in fluorescent microscope with 40× objective and the signals associated with the RCPs were quantified using a software.
FIG. 10A-10C show the detected object count per nucleic area (RCP count/μm^2 nuclei area) in cells of the human breast cancer samples treated with Compound 1 for de-crosslinking in the presence or absence of additives SDS, urea, and/or proteinase K as indicated. […] In addition, it was observed antibody staining (e.g., antibody positive signal intensity for Pan cytokeratin, Vimentin, and Ki67) was compatible with the catalytic de-crosslinking conditions with Compound 1 in the presence of urea and proteinase K. Tissue morphology was also observed to be preserved post workflow and detection as confirmed by H&E staining that was performed.

[3] = test system: FFPE human breast cancer samples; assay: antibody staining (Pan cytokeratin, Vimentin, Ki67) in FFPE human breast cancer samples de-crosslinked with additives; conditions: in the presence of urea and proteinase K
Description: as §1
(§2) FIG. 10A-10C show the detected object count per nucleic area (RCP count/μm^2 nuclei area) in cells of the human breast cancer samples treated with Compound 1 for de-crosslinking in the presence or absence of additives SDS, urea, and/or proteinase K as indicated. […]

[4] = test system: FFPE human breast cancer samples; assay: tissue morphology by H&E staining after de-crosslinking workflow with additives; conditions: post workflow and detection, confirmed by H&E staining
Description: as §1, §2

[5] = test system: FFPE human breast cancer, melanoma, lymph node, lung cancer, and normal lung tissues; assay: anti-Vimentin antibody staining in de-crosslinked FFPE samples from various tissues; conditions: across the tissue types, compared to de-crosslinking in a steamer and heating at 95° C. in TE buffer
Excerpt: (§3) The samples were washed (e.g., in PBST) and detectable probes in a hybridization buffer (e.g., containing SSC and formamide) were hybridized to RCA products (RCPs) in the sample. The detectable probes included probes that hybridize to sequences (e.g., barcode sequences or anchor sequences) in the RCPs and comprise overhangs for hybridization of fluorescently labelled detection oligonucleotides. The samples were imaged in fluorescent microscope with 40× objective and the signals associated with the RCPs were quantified using a software. In some instances, the samples were also stained with DAPI and/or labelled antibodies, e.g., fluorescently labelled anti-Vimentin antibody or anti-panCK antibody. In some instances, once the samples were imaged to detect signals associated with the detectable probes or labelled antibodies, the samples were stripped (e.g., using a denaturing agent) and contacted with additional detectable probes or labelled antibodies for the next imaging round.
FFPE human breast cancer, melanoma, lymph node, lung cancer, and normal lung tissues were processed essentially as described in Example 1. […] Analytes in the de-crosslinked tissue samples were detected essentially as described in Example 2.

[6] = test system: normal lung tissue samples; assay: RCP detection in catalytically de-crosslinked FFPE normal lung tissue samples; set-up: species or system human; conditions: compared to control samples de-crosslinked in a steamer (data not shown)
Description: (§4) FFPE human breast cancer, melanoma, lymph node, lung cancer, and normal lung tissues were processed essentially as described in Example 1. Specifically, 2-amino-5-methylbenzoic acid (Compound 1) or (4-aminopyridin-3-yl)phosphonic acid (Compound 8) was used as the de-crosslinking agent and applied to de-paraffinized and re-hydrated samples in a buffer solution, such as a solution of citrate buffer at pH 6 or a solution of TE buffer at pH 9. The samples were incubated under various de-crosslinking temperatures (e.g., 80° C. or 95° C.) for 30 minutes, using 0 mM or 200 mM of Compound 1 or Compound 8. Analytes in the de-crosslinked tissue samples were detected essentially as described in Example 2.
The RCPs were detected using detectable probes targeting barcode sequences for MALAT-I/ACTB or GAPDH/RPLPO or targeting the common anchor region in the RCPs (representative images in FIG. 8, left panel).

[7] = test system: FFPE human breast cancer tissues; assay: RCP detection (RCP count/μm^2 nuclei area) in catalytically de-crosslinked FFPE human breast cancer samples; conditions: for detection of RCPs (detected object counts per nucleic area, RCP count/μm^2 nuclei area): 100 mM, 80° C., 30 minutes, compared to control de-crosslinked in a steamer for 30 minutes using citrate buffer (pH 6)
Excerpt: A formalin-fixed, paraffin-embedded (FFPE) tissue sample was cut into thin tissue sections using a pre-warmed microtome. The sections were placed on slides and dried at a temperature higher than room temperature, followed by overnight drying at room temperature in a desiccator. Images of the sections were taken for record, e.g., in order to monitor tissue morphology and/or detachment during sample processing. In some instances, images of the sections taken after de-crosslinking were compared to those before de-crosslinking.
The slides were baked uncovered in an oven, and then calibrated to room temperature. The sections were de-paraffinized and dehydrated using xylene and absolute ethanol. The sections were then re-hydrated using an ethanol series (e.g., 96% ethanol followed by 70% ethanol), and then re-hydrated in nuclease free water (e.g., DEPC water). The slides were gently dried to allow application of a cassette to seal around the tissue sections, without letting the tissue section to dry completely.
The sections were then de-crosslinked using a catalyst disclosed herein in a buffer solution. In some instances, the a de-crosslinking buffer can function as an antigen retriever buffer. Then the sections were washed three times with RNase-free phosphate-buffered saline (PBS) or PBST (phosphate-buffered saline solution with a low-concentration detergent solution, e.g., 0.05% to 0.1% Tween™ 20) prior to application of labelling agents (e.g., detectable nucleic acid probes for nucleic acids and/or labelled antibodies for proteins) to the tissue samples.
FFPE human breast cancer tissues were sectioned to […] thickness, transferred to Superfrost© Plus slides, and processed essentially as described in Example 1. Specifically, 2-amino-5-methylbenzoic acid (Compound 1) was used as the de-crosslinking agent and applied to de-paraffinized and re-hydrated samples in a buffer solution, such as a solution of citrate buffer at pH 6 or a solution of Tris-EDTA (TE) buffer at pH 9. […]

[8] = test system: FFPE human breast cancer tissues; assay: anti-panCK antibody staining in de-crosslinked FFPE human breast cancer samples; conditions: various concentrations in citrate or TE buffer; compared to control de-crosslinked in a steamer
Description: FFPE human breast cancer tissues were sectioned to […] thickness, transferred to Superfrost© Plus slides, and processed essentially as described in Example 1. Specifically, 2-amino-5-methylbenzoic acid (Compound 1) was used as the de-crosslinking agent and applied to de-paraffinized and re-hydrated samples in a buffer solution, such as a solution of citrate buffer at pH 6 or a solution of Tris-EDTA (TE) buffer at pH 9. The samples were incubated under various de-crosslinking temperatures (e.g., 80° C. or 95° C.) for various time periods (e.g., 15 minutes or 30 minutes). Different concentrations of the de-crosslinking agent in the buffer solutions were tested, including 0 mM, 50 mM, 100 mM, 200 mM, and 400 mM of Compound 1.
The samples were washed (e.g., in PBST) and detectable probes in a hybridization buffer (e.g., containing SSC and formamide) were hybridized to RCA products (RCPs) in the sample. The detectable probes included probes that hybridize to sequences (e.g., barcode sequences or anchor sequences) in the RCPs and comprise overhangs for hybridization of fluorescently labelled detection oligonucleotides. The samples were imaged in fluorescent microscope with 40× objective and the signals associated with the RCPs were quantified using a software. […]

[9] = test system: FFPE human breast cancer, melanoma, lymph node, lung cancer, and normal lung tissues; assay: RCP/RNA transcript detection in de-crosslinked FFPE samples from various tissues; conditions: across the tissue types; for visualization of transcripts GAPDH/RPLPO or MALAT-I/ACTB (RCPs): 0 mM or 200 mM, 30 minutes, compared to de-crosslinking in a steamer; for RNA/protein visualization: overlaid images of RNA detection and protein detection
Description: The de-crosslinked and washed tissue samples can be immediately used for analyte detection. In some instances, circularizable probes (e.g., padlock probes) targeting MALAT-1/ACTB (nuclear/cytoplasmic) or GAPDH/RPLPO (cytoplasmic) RNA transcripts were added in hybridization buffers (e.g., including SSC and formamide) and incubated with the samples to allow hybridization of the circularizable probes to their target nucleic acids. In addition to a target hybridization region, each circularizable probe also contained a common anchor region and a barcode region. Then, the probe hybridization mixture was removed and the samples were washed. For ligation of the circularizable probes hybridized to their target nucleic acids, a ligation reaction mix (e.g., containing a SplintR® ligase buffer, RNase inhibitor and SplintR® ligase) and a rolling circle amplification (RCA) primer were added to the samples and incubated for probe circularization and RCA primer hybridization to the probes. The samples were washed and an RCA reaction mixture (containing Phi29 reaction buffer, dNTPs, Phi29 polymerase) was added and incubated for RCA of the circularized probes.
as §3
as §4, with “The samples were incubated under various de-crosslinking temperatures (e.g., 80° C. or 95° C.) for 30 minutes, using 0 mM or 200 mM of Compound 1 or Compound 8.” left out

SMILES: O=C(O)[C@@H]1C[C@@H](O)CN1 [Compound 18, trans-4-hydroxy-L-proline]
- signal density (detected object signal intensity above local background (mean)) ([1]; citrate buffer (pH 6.8)): improved signal density

SMILES: Cc1ccc(N)c(C(=O)O)c1 [Compound 1, 2-amino-5-methylbenzoic acid]
- signal density (detected object signal intensity above local background (mean)) ([1]; PBS (pH 7.4)): improved signal density
- detection of RCPs (detected object counts per nucleic area) ([2]; in the presence of SDS and proteinase K): appeared to improve the detection of RCPs
- detection of RCPs (detected object counts per nucleic area) ([2]; in the presence of urea and proteinase K): appeared to improve the detection of RCPs
- puncta brightness and/or numbers detected ([2]; in the presence of both 0.5 M urea and 1 μg/ml proteinase K): increases in puncta brightness and/or numbers detected
- puncta brightness and/or numbers detected ([2]; in the presence of both 0.5 M urea with 0.5 μg/ml Proteinase K): increases in puncta brightness and/or numbers detected
- antibody staining (antibody positive signal intensity for Pan cytokeratin, Vimentin, and Ki67) [3]: compatible
- tissue morphology [4]: preserved
- anti-Vimentin antibody staining [5]: enhanced anti-Vimentin antibody staining
- RCP densities (detected object count per nucleic area, RCP count/μm^2 nuclei area) [6]: Higher RCP densities
- detection of RCPs (detected object counts per nucleic area, RCP count/μm^2 nuclei area) ([7]; TE buffer (pH 9)): significantly improve the detection of RCPs
- detection of RCPs (detected object counts per nucleic area, RCP count/μm^2 nuclei area) ([7]; citrate buffer (pH 6)): significantly improve the detection of RCPs
- sensitivity and RCP brightness ([7]; citrate buffer, between about 100 and about 200 mM): boost sensitivity and RCP brightness
- antibody staining (antibody positive signal intensity), anti-panCK [8]: may be improved
- visualization of transcripts GAPDH/RPLPO or MALAT-I/ACTB (RCPs) [9]: enhanced visualization
- RNA/protein visualization [9]: enhanced RNA/protein visualization

SMILES: Nc1ccccc1P(=O)(O)O [Compound 15, (2-aminophenyl)phosphonic acid]
- signal density (detected object signal intensity above local background (mean)) ([1]; citrate buffer (pH 6.8)): improved signal density

SMILES: Nc1ccncc1P(=O)(O)O [Compound 8, (4-aminopyridin-3-yl)phosphonic acid]
- anti-Vimentin antibody staining [5]: enhanced anti-Vimentin antibody staining
- RCP densities (detected object count per nucleic area, RCP count/μm^2 nuclei area) [6]: Higher RCP densities
- visualization of transcripts GAPDH/RPLPO or MALAT-I/ACTB (RCPs) [9]: enhanced visualization
- RNA/protein visualization [9]: enhanced RNA/protein visualization
